# From patent US11648199B2 (AI Therapeutics, Inc, priority 2014, dated 2023)
# “And” between values parts separate entries of the source, which are not always exact repeats. Equal entries are not always repeated. Where two headings read alike, the source gives them in different places.
# What was measured:
# [1] = system: S6 phosphorylation (mTOR pathway); test: Phosphorylated S6 by western blot in AML cells; type: cell-based, human; settings: 20 nM, 24 hours (FIG. 7, top)
# [2] = system: phosphorylated S6 protein (mTOR activity); test: Phosphorylated S6 in mouse lung after OPA or oral rapamycin; type: in vivo, C57bl/6 mice
# Description: To validate this approach, we used the presence of phosphorylated S6 protein in murine lung tissue as a biomarker for mTOR activity. In the mouse strain used (C57b1/6), the mouse airway and alveolar epithelial cells have constitutively active (phosphorylated, “p”) S6 protein. The S6 protein is typically phosphorylated by S6K which is downstream of mTORC1 and is activated, for example, downstream of growth factors such as epidermal growth factor (EGF), AKT, ERK, and RSK. mTORC1 promotes cell growth and proliferation by stimulating anabolic processes such as biosynthesis of lipids, proteins, and organelles, and suppressing catabolic processes such as autophagy.
# [3] = Lung concentration of rapamycin after inhalation, Study Day 1; type: in vivo, Sprague-Dawley rats
# Description: The results of this initial study were replicated and expanded in additional rat studies and dog studies. […] Two sets of animals were used to perform the toxicokinetic measurements for this study.
# [4] = 28-day repeat dose inhalation toxicokinetics, study 7300225; type: in vivo, SD rats; settings: average of D28
# Description: Two sets of animals were used to perform the toxicokinetic measurements for this study.
# [5] = 28-day repeat dose inhalation toxicokinetics, study 7300227; type: in vivo, Beagle dogs; settings: for concentration at 24 h: Beagle, dog, lung, read-out: Lung 24 hr trough levels; for Blood trough levels / Max blood levels: average of D28
# Description: For the dog study, a positive flow delivery system (PFDS) consisting of a central plenum and delivery arms was utilized. The central plenum was of modular design with separate ports into which were attached 5 delivery arms fitted with oronasal exposure masks fitted with inlet and outlet tubes. The mask was fitted over the dog's muzzle in such a way that the nose was inside the mask, allowing entrance and exit of air. During exposure, animals wore a harness and were placed on a restraint platform. The harness was attached to two side poles on the platform in order to restrict lateral movement of the dog. The front part of the harness was loosely attached to a hook on the front of the platform to prevent the animal from turning around. […] For each dosing group, one set of animals (N=6) was dosed for 60 minutes each day for 28 consecutive days.
# [6] = Extrapolation of rat and dog inhalation data to human dosing; settings: extrapolated
# [7] = Particle size distribution by laser diffraction after size reduction; type: physicochemical
# Procedure: For jet milling, a lab scale MCOne unit from Jetpharma was used with the following operating conditions: venturi pressure 2-4 bar, milling pressure 3-5 bar, feed rate 90 g/h. For wet polishing, feed suspensions were prepared using purified water. A microfluidics high pressure homogenizer was used for the size reduction step and the resulting suspension was spray-dried. Details of the wet polishing process are set forth below.
# The high pressure homogenizer used for the size reduction step of the wet polishing process was a pilot-scale Microfluidics High Pressure Homogenizer equipped with an auxiliary processing module (200 micron) and a 100 micron interaction chamber was used. The unit was operated at ˜455 bar (˜30 bar in the intensifier module hydraulic pressure). After microfluidization the fluid was removed by spray drying to generate a dry powder. A laboratory scale spray dryer, SD45 (BÜCHI, model B-290 Advanced) was equipped with a two fluid nozzle (cap and diameter were 1.4 and 0.7 mm, respectively). Two cyclones in series were used (being the first the standard Buchi cyclone and the second the high-performance Buchi cyclone) to collect the dried product. The spray drying unit was operated with nitrogen and in single pass mode, i.e. without recirculation of the drying nitrogen. The aspirator, blowing nitrogen, was set at 100% of its capacity (flow rate at maximum capacity is approximately 40 kg/h). The flow rate of the atomization nitrogen was adjusted to a value in the rotameter of 40±5 mm. Before feeding the product suspension, the spray dryer was stabilized with purified water, during which the flow rate was adjusted to 6 ml/min (20% in the peristaltic pump). The inlet temperature was adjusted to achieve the target outlet temperature (45° C.). After stabilization of the temperatures, the feed of the spray dryer was commuted from purified water to the product suspension (keeping the same flow rate used during stabilization) and the inlet temperature once again adjusted in order to achieve the target outlet temperature. At the end of the stock suspension, the feed was once more commuted to purified water in order to rinse the feed line and perform a controlled shut down. The dry product in the collection flasks under both cyclones was weighed and the yield calculated as the mass percentage of the dry product in relation to the total solids in the suspension fed to the high pressure homogenizer.
# Particle size distribution was analyzed by laser diffraction. Solid state characterization (for polymorphic form and purity) was performed by high pressure liquid chromatography (HPLC), X-ray powder diffraction (XRPD), and differential scanning calorimetry (mDSC). Water content was determined by the Karl Fischer method.
# [8] = sirolimus in lymphangioleiomyomatosis; cited from earlier work
# [9] = emitted dose 50 ug, repeat inhaled daily dose 5 ug
# [10] = emitted dose 2850 ug, repeat inhaled daily dose 285 ug
# [11] = emitted dose 160 ug, repeat inhaled daily dose 40 ug
# [12] = emitted dose 424 ug, repeat inhaled daily dose 106 ug
# [13] = emitted dose 87 ug, repeat inhaled daily dose 35 ug
# [14] = emitted dose 175 ug, repeat inhaled daily dose 70 ug
compound,measurement,setting,value
"CO[C@H]1C[C@@H]2CC[C@@H](C)[C@@](O)(O2)C(=O)C(=O)N2CCCC[C@H]2C(=O)O[C@H]([C@H](C)C[C@@H]2CC[C@@H](O)[C@H](OC)C2)CC(=O)[C@H](C)/C=C(\C)[C@@H](O)[C@@H](OC)C(=O)[C@H](C)C[C@H](C)/C=C/C=C/C=C/1C [Rapamycin, (3 S,6R,7E,9R,10R,12R,14S,15E,17E,19E,21S,23 S,26R,27R,34aS)-9,10,12,13,-14,21,22,23,24,25,26,27,32,33,34,34a-hexadecahydro-9,27-dihydroxy-3-[(1R)-2-[(1S,3R,4R)-4-hydroxy-3-methoxycyclohexyl]-1-methylethyl]-10,21-dimethox-y-6,8,12,14,20,26-hexamethyl-23,27-epoxy-3H-pyrido[2,1-c][1,4]oxaazacyclohentriacontine-1,5,11,28,29(4H,6H,31H)-pentone]",S6 phosphorylation,[1],potently inhibits S6 phosphorylation
same,level of phosphorylated S6 (pS6) in lung,"[2]; OPA 1 mg/kg, 1 hr (FIG. 8A)",reduced substantially
same,level of phosphorylated S6 (pS6) in lung,"[2]; OPA 1 mg/kg, 72 hr (FIG. 8A)",remained suppressed
same,level of phosphorylated S6 (pS6) in lung,"[2]; oral gavage 1 mg/kg, 1 hr (FIG. 8A)",reduced substantially
same,concentration at 2 h post-dosing,"[3]; Sprague-Dawley, rat, lung, inhaled, target dose 11 ug Day 1, 2 hr post-dosing, read-out: Avg Lung rapa",250 ng/g
same,concentration at 4 h post-dosing,"[3]; Sprague-Dawley, rat, lung, inhaled, target dose 11 ug Day 1, 4 hr post-dosing, read-out: Avg Lung rapa",192 ng/g
same,concentration at 12 h post-dosing,"[3]; Sprague-Dawley, rat, lung, inhaled, target dose 11 ug Day 1, 12 hr post-dosing, read-out: Avg Lung rapa",95 ng/g
same,Avg Lung rapa,"[3]; target dose 11 ug Day 1, immediate post-dosing",560 ng/g
same,Avg Lung rapa,"[3]; target dose 11 ug Day 1, midway dosing",462 ng/g
same,Blood trough levels,[4]; [9],2 ng/mL
same,Max blood levels,[4]; [9],7.6 ng/mL
same,Max blood levels,"[4]; emitted dose 1425 ug, repeat inhaled daily dose 143 ug",70.5 ng/mL
same,Blood trough levels,[4]; [10],21.0 ng/mL
same,Max blood levels,[4]; [10],77.8 ng/mL
same,concentration at 24 h,"[5]; inhaled, 106 ug",61 ng/g
same,concentration at 24 h,"[5]; emitted dose 160 ug, repeat inhaled daily dose 40 ug, after 28 days",32 ng/g
same,Blood trough levels,[5]; [11],1.9 ng/mL
same,Max blood levels,[5]; [11],7.4 ng/mL
same,Blood trough levels,[5]; [12],5.9 ng/mL
same,Max blood levels,[5]; [12],27.3 ng/mL
same,Blood trough levels,[6]; [13],0.15 ng/mL
same,Lung 24 hr trough levels,[6]; [13],2 ng/g
same,Max blood levels,[6]; [13],0.65 ng/mL
same,Blood trough levels,[6]; [14],0.3 ng/mL
same,Lung 24 hr trough levels,[6]; [14],4 ng/g
same,Max blood levels,[6]; [14],1.3 ng/mL
same,PSD Dv10,[7]; jet milling,1.5 μm and 1.51 μm
same,PSD Dv50,[7]; jet milling,2.7 μm and 2.74 μm
same,PSD Dv90,[7]; jet milling,4.9 μm and 4.91 μm
same,PSD Dv10,[7]; wet polishing,1.51 μm
same,PSD Dv50,[7]; wet polishing,2.74 μm
same,PSD Dv90,[7]; wet polishing,5.0 μm and 4.91 μm
same,blood concentrations reported,[8],5 to 15 ng/mL
